Results published in US10047076B2, “Halogen-substituted compounds” (BAYER CROPSCIENCE AKTIENGESELLSCHAFT, priority 2014, dated 2018).

Experiments:
Ctenocephalides felis [1] = assay: Ctenocephalides felis in vitro contact test with adult cat fleas; type: in vivo; settings: application rate 5 μg/cm^2 (500 g/ha), after 48 h, adult cat fleas dead or moribund
Procedure: (§1) For the coating of the test tubes, 9 mg of active compound are first dissolved in 1 ml of acetone p.a. and then diluted to the desired concentration with acetone p.a. 250 μl of the solution are distributed homogeneously on the inner walls and the base of a 25 ml test tube by turning and rocking on an orbital shaker (rocking rotation at 30 rpm for 2 h). With 900 ppm active compound solution and internal surface 44.7 cm^2, given homogeneous distribution, an area-based dose of 5 μg/cm^2 is achieved.
After the solvent has evaporated off, the tubes are populated with 5-10 adult cat fleas (Ctenocephalides felis), sealed with a perforated plastic lid and incubated in a horizontal position at room temperature and ambient humidity. After 48 h, efficacy is determined. To this end, the test tubes are stood upright and the fleas are knocked to the base of the tube. Fleas which remain motionless at the base or move in an uncoordinated manner are considered to be dead or moribund.
100% efficacy means that all the fleas were dead or moribund. 0% efficacy means that no fleas were harmed.

Lucilia cuprina = Lucilia cuprina test; type: in vivo; settings: 100 ppm, L1 larvae, after 2 days
Procedure: (§2) Solvent: dimethyl sulphoxide
About 20 L1 larvae of the Australian sheep blowfly (Lucilia cuprina) are transferred into a test vessel containing minced horsemeat and the active compound preparation of the desired concentration.
After 2 days, the kill in % is determined.

Amblyomma hebraeum = assay: Amblyomma hebaraeum test (AMBYHE), tick nymphs immersion; type: in vivo; settings: 100 ppm, after 42 days
Procedure: as §2
To produce a suitable active compound formulation, 10 mg of active compound are mixed with 0.5 ml of dimethyl sulphoxide, and the concentrate is diluted with water to the desired concentration.
Tick nymphs (Amblyomma hebraeum) are placed into perforated plastic beakers and immersed in the desired concentration for one minute. The ticks are transferred on filter paper into a Petri dish and stored in a climate-controlled cabinet.

Boophilus microplus = Boophilus microplus injection test; type: in vivo; settings: 20 μg/animal, engorged adult female ticks, after 7 days
Procedure: as §2
1 μl of the active compound solution is injected into the abdomen of 5 engorged adult female cattle ticks (Boophilus microplus). The animals are transferred into dishes and kept in a climate-controlled room.
(§3) Efficacy is assessed after 7 days by laying of fertile eggs. Eggs which are not visibly fertile are stored in a climate-controlled cabinet until the larvae hatch after about 42 days. An efficacy of 100% means that none of the ticks has laid any fertile eggs; 0% means that all the eggs are fertile.

Spodoptera frugiperda = Spodoptera frugiperda spray test; type: in vivo; settings: 100 g/ha, caterpillars on maize leaf discs, after 7 days
Excerpt: (§4) Solvent: 78.0 parts by weight of acetone

Tetranychus urticae [2] = assay: Tetranychus urticae spray test, OP-resistant (bean plants); type: in vivo; settings: 20 ppm, after 7 days
Phaedon cochleariae = Phaedon cochleariae spray test; settings: 100 g/ha, larvae on Chinese cabbage leaf discs, after 7 days
Musca domestica = Musca domestica test; type: in vivo; settings: 100 ppm, adult houseflies, after 2 days
Excerpt: as §2
Vessels containing a sponge treated with sugar solution and the active compound preparation of the desired concentration are populated with 10 adult houseflies (Musca domestica).

[3] = system: cattle ticks (Boophilus microplus) Parkhurst strain, SP-resistant; assay: Boophilus microplus dip test; type: in vivo; settings: 100 ppm, engorged adult female ticks, after 7 days
Procedure: Test animals: cattle ticks (Boophilus microplus) Parkhurst strain, SP-resistant
as §2
10 mg of active compound are dissolved in 0.5 ml of dimethyl sulphoxide. For the purpose of producing a suitable formulation, the active compound solution is diluted with water to the concentration desired in each case.
This active compound preparation is pipetted into tubes. 8-10 engorged adult female cattle ticks (Boophilus microplus) are transferred into a further tube with holes. The tube is immersed into the active compound preparation, and all the ticks are completely wetted. After the liquid has run out, the ticks are transferred on filter discs into plastic dishes and stored in a climate-controlled room.
as §3

Rhipicephalus sanguineus = Rhipicephalus sanguineus in vitro contact test with adult brown dog ticks; type: in vivo; settings: application rate 5 μg/cm^2 (500 g/ha), after 48 h, adult ticks dead or moribund
Procedure: as §1
After the solvent has evaporated off, the tubes are populated with 5-10 adult dog ticks (Rhipicephalus sanguineus), sealed with a perforated plastic lid and incubated in a horizontal position in the dark at room temperature and ambient humidity. After 48 h, efficacy is determined. To this end, the ticks are knocked to the floor of the tube and incubated on a hotplate at 45-50° C. for not more than 5 min. Ticks which remain motionless on the floor or move in such an uncoordinated manner that they are unable to deliberately avoid the heat by climbing upwards are considered to be dead or moribund.
An efficacy of 100% means that all the ticks were dead or moribund. 0% efficacy means that none of the ticks had been harmed.

[4] = log P determination by HPLC on reversed-phase column (C18), EEC Directive 79/831 Annex V.A8, acidic (formic acid); type: physicochemical; settings: HPLC method a), acetonitrile/water with formic acid
Procedure: ^1 The stated mass is the peak of the isotope pattern of the [M+H]^+ ion of the highest intensity; if the [M-H]^- ion was detected, the stated mass is identified with ^2. ^2 The stated mass is the peak of the isotope pattern of the [M-H]^- ion of the highest intensity. ^a) Note regarding the determination of the log P values and mass detection: The determination of the given log P values was carried out in accordance with EEC Directive 79/831 Annex V.A8 by HPLC (High Performance Liquid Chromatography) on a reversed-phase column (C18). […] Mass detection is effected by means of an […] system. ^b) Note regarding the determination of the retention time and mass detection: The stated retention times were determined on a reversed-phase column (C18) Shimadzu LCMS 2020; 50*3.0 Shimadzu shim-pack XR-ODS 2.2 micron; mobile phase A: water (0.05% TFA); mobile phase B: acetonitrile; linear gradient from 5% acetonitrile to 95% acetonitrile in 6.00 min, then 95% acetonitrile for a further 1.1 min; oven temperature 40° C.; flow rate: 1.0 ml/min. ^c) Note regarding the determination of the retention time and mass detection: Instrument: Waters ACQUITY SQD UPLC system; column. Waters Acquity UPLC HSS T3 1.8μ 50×1 mm; mobile phase A: 1 l of water+0.25 ml of 99% strength formic acid, mobile phase B: 1 l of acetonitrile+0.25 ml of 99% strength formic acid; gradient: 0.0 min 90% A→1.2 min 5% A→2.0 min 5% A oven: 50° C.; flow rate: 0.40 ml/min; UV detection: 208-400 nm. ^d) Note regarding the determination of the retention time and mass detection: […] The determination of the given log P values was carried out in accordance with EEC Directive 79/831 Annex V.A8 by HPLC (High Performance Liquid Chromatography) on a reversed-phase column (C18). […] Mass detection is effected by means of an […] system.

Ctenocephalides felis [5] = assay: Ctenocephalides felis oral test; type: in vivo; settings: 100 ppm in citrated cattle blood, after 2 days
Excerpt: as §2
Dilution with citrated cattle blood gives the desired concentration.
About 20 unfed adult cat fleas (Ctenocephalides felis) are placed into a chamber which is closed at the top and bottom with gauze. A metal cylinder whose bottom end is closed with parafilm is placed onto the chamber. The cylinder contains the blood/active compound preparation, which can be imbibed by the fleas through the parafilm membrane.

Tetranychus urticae [6] = assay: Tetranychus urticae spray test, OP-resistant (bean leaf discs); type: in vivo; settings: 100 g/ha, after 6 days
Procedure: as §4
(§5) After 6 days, the efficacy in % is determined.

Myzus persicae = Myzus persicae spray test; type: in vivo; settings: 100 g/ha, Chinese cabbage leaf discs, after 6 days
Procedure: Solvent: 78 parts by weight of acetone
as §5

chromatographic logP [4] | SMILES | efficacy (Ctenocephalides felis [1]) [%] | efficacy (kill in %) (Lucilia cuprina) [%] | efficacy (kill in %) (Amblyomma hebraeum) [%] | efficacy (laying of fertile eggs) (Boophilus microplus) [%] | efficacy (Spodoptera frugiperda) [%] | efficacy (Tetranychus urticae [2]) [%] | efficacy (Phaedon cochleariae) [%] | efficacy (kill in %) (Musca domestica) [%] | efficacy (laying of fertile eggs) [3] [%] | efficacy (Rhipicephalus sanguineus) [%] | efficacy (kill in %) (Ctenocephalides felis [5]) [%] | efficacy (Tetranychus urticae [6]) [%] | logP [4] | efficacy (Myzus persicae) [%]
4.06 | Cn1nc(C(F)(F)C(F)(F)F)c(C(F)(F)F)c1-c1cc(-c2ccc(Cl)c(C(=O)NC3CC3)c2)no1 [Iap-1, 2-chloro-N-cyclopropyl-5-{5-[1-methyl-3-(pentafluoroethyl)-4-(trifluoromethyl)-1H-pyrazol-5-yl]-1,2-oxazol-3-yl}benzamide] | 100 | 100 | 100 | 100 | 100 | 100 | 100 | 100 | 100 | 100 | 100 | – | – | –
– | Cn1nc(C(F)(F)C(F)(F)F)c(C(F)(F)F)c1-c1csc(-c2ccc(Cl)c(C(=O)NC3CC3)c2)c1 [Iaf-1] | 100 | 100 | 100 | 100 | 100 | – | 100 | – | 100 | 100 | 100 | 100 | 4.31 | 90
